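A five-concentration, 48-hour dose response in 96-well plates underlies each endpoint, interpolated linearly between surrounding concentrations. The concentration for 50% growth inhibition is given as GI50. TGI denotes the concentration required for complete inhibition of growth.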
Assays:
Experiment in all cases: inhibition of tumour cell growth, NCI panel, 48 h
NCI-H226 lung = system: NCI-H226 lung
SK-MEL-28 melanoma = system: SK-MEL-28 melanoma
HOP-92 NSCLC = system: HOP-92 NSCLC
HCT-15 colon = system: HCT-15 colon
NCI-H460 lung = system: NCI-H460 lung
LOX IMVI melanoma = system: LOX IMVI melanoma
MOLT-4 leukemia = system: MOLT-4 leukemia
SNB-75 CNS = system: SNB-75 CNS
SK-MEL-2 melanoma = system: SK-MEL-2 melanoma
MALME-3M melanoma = system: MALME-3M melanoma
HL-60(TB) leukemia = system: HL-60(TB) leukemia
786-0 renal = system: 786-0 renal
HCC-2998 colon = system: HCC-2998 colon
HOP-62 NSCLC = system: HOP-62 NSCLC

Row | SMILES | TGI (NCI-H226 lung) [µM] | TGI (SK-MEL-28 melanoma) [µM] | TGI (HOP-92 NSCLC) [µM] | TGI (HCT-15 colon) [µM] | TGI (NCI-H460 lung) [µM] | TGI (LOX IMVI melanoma) [µM] | TGI (MOLT-4 leukemia) [µM] | TGI (SNB-75 CNS) [µM] | TGI (SK-MEL-2 melanoma) [µM] | TGI (MALME-3M melanoma) [µM] | TGI (HL-60(TB) leukemia) [µM] | TGI (786-0 renal) [µM] | TGI (HCC-2998 colon) [µM] | TGI (HOP-62 NSCLC) [µM] | GI50 (HOP-92 NSCLC) [µM] | GI50 (LOX IMVI melanoma) [µM] | GI50 (MOLT-4 leukemia) [µM] | GI50 (SNB-75 CNS) [µM] | GI50 (MALME-3M melanoma) [µM]
1 | CCOC(=O)c1cc(I)c(-c2cc(C)no2)n1C | > 100 | > 100 | > 100 | > 100 | > 100 | > 100 | 71.6 | > 100 | > 100 | > 100 | 74.5 | > 100 |  |  |  |  |  |  | 
2 | CC1(C)C(=O)c2ccccc2OC1N1CCN(C2Oc3ccccc3C(=O)C2(C)C)CC1 (stereo unspecified) | > 100 | > 100 | > 100 | > 100 | > 100 | > 100 | > 100 | > 100 |  | > 100 | > 100 |  | > 100 | > 100 |  |  |  |  | 
3 | COC(OC)C1OCC(n2cc(F)c(=O)[nH]c2=O)C1O (stereo unspecified) | > 100 | > 100 | > 100 | > 100 | > 100 | > 100 | > 100 | > 100 | > 100 | > 100 |  | > 100 | > 100 | > 100 |  |  |  |  | 
4 | O=C1c2ccccc2C(=O)c2sc(Nc3ccccc3C(F)(F)F)nc21 |  | 30.3 | 23.7 | > 100 | 58.1 | > 100 | 85.1 | 35.8 | 25.2 | 29.9 | 17.7 | 41 | 35.2 | 28.2 |  |  |  |  | 
5 | O=S(OC12CC3CC(CC(C3)C1)C2)c1cc(Cl)cc(Cl)c1OCc1ccccc1 (stereo unspecified) |  | > 100 |  |  | > 100 | > 100 | > 100 | > 100 | > 100 | > 100 | > 100 |  | > 100 | > 100 |  |  |  |  | 
6 | O=c1[nH]c(=O)n(C2CC(O)C(CO)O2)cc1NN=NCCCc1ccccc1 (stereo unspecified) | > 100 | > 100 | > 100 | > 100 | > 100 | > 100 | > 100 |  | > 100 | > 100 | > 100 | > 100 | > 100 | > 100 |  |  |  |  | 
7 | CC(=O)OCC1OC(OCCCCCCO)C(OC(C)=O)C(OC(C)=O)C1OC(C)=O (stereo unspecified) | > 100 | > 100 | > 100 | > 100 | > 100 | > 100 | > 100 | > 100 | > 100 |  | > 100 |  | > 100 | > 100 |  |  |  |  | 
8 | CCN(CC)C(=S)Nc1ccc(-c2cc3ccc(O)cc3oc2=O)cc1 | 99.5 | > 100 |  | 67.6 | > 100 | > 100 | > 100 | > 100 | 49.3 | 69.2 | 23.2 | > 100 | 39.8 |  |  |  |  |  | 
9 | O=[N+]([O-])c1ccc(C(Nc2ccccc2)P(c2ccccc2)c2ccccc2)cc1 (stereo unspecified) | > 100 | > 100 | > 100 | > 100 | > 100 | > 100 | > 100 | > 100 | > 100 | > 100 | > 100 | > 100 |  | > 100 |  |  |  |  | 
10 | COC(=O)CCc1ccc2c(c1)C(=O)CC2 |  | > 100 | > 100 | > 100 | > 100 | > 100 | > 100 | 99.9 | > 100 | > 100 | > 100 | > 100 | > 100 | > 100 |  |  |  |  | 
11 | CC1(C)C(CCO)CC1n1cc(I)c(=O)[nH]c1=O (stereo unspecified) | > 100 | > 100 | > 100 | > 100 |  | > 100 | > 100 | > 100 | > 100 |  |  | > 100 | > 100 | > 100 |  |  |  |  | 
12 | CCOC(=O)c1c(Br)c(-c2ccc(OC)cc2)c(Br)n1C | 87.5 | > 100 | 14.1 | 64.2 | > 100 | 41.6 | > 100 | > 100 | 39.1 | 44.4 | 14.1 | 73.4 |  | 39.7 | 0.0721 | 17.5 | 17.8 | 63.4 | 9.99
13 | O=C(NC1CCCCC1)c1cc2ccccc2cc1O | 41 | > 100 | 65.1 | 65.1 | 62.8 | > 100 |  | > 100 | 44.7 |  | 96.1 | 84.5 | 58.8 | > 100 |  |  |  |  | 
14 | CCOC(=O)c1nc2ccccc2nc1Oc1ccc(C(=O)OC)cc1 | > 100 | > 100 | > 100 | > 100 | > 100 | > 100 | > 100 | > 100 | > 100 | > 100 |  | > 100 |  | > 100 |  |  |  |  | 
15 | O=c1[nH]c2ccccc2c(O)c1/C=N/C(=S)NCc1ccccc1 | > 100 | > 100 | > 100 |  |  | > 100 | > 100 | > 100 | > 100 |  | > 100 | > 100 |  | > 100 |  |  |  |  | 
16 | Brc1ccc2c3c1[C@H]1O[C@H]1c1cccc(c1-3)[C@@H]1O[C@H]21 | 64 | 36.5 | 38.3 | 49.1 |  | 9.39 | > 100 | 26.3 | 41.6 | 33 |  | 34.6 |  | 30.3 |  |  |  |  | 
17 | Oc1ccc(Cl)cc1-c1cc(-c2ccccc2)nc(NCN2CCCCC2)n1 |  | > 100 | > 100 | > 100 | > 100 | > 100 | > 100 | > 100 | > 100 | > 100 | > 100 | > 100 | > 100 | > 100 |  |  |  |  | 
18 | CN(C)c1ccc(C=C2C(=O)N(c3ccccc3)N(c3ccccc3)C2=O)cc1 | > 100 | > 100 | 65.1 | > 100 |  | > 100 | > 100 | > 100 | > 100 | > 100 |  | > 100 |  | > 100 |  |  |  |  | 
